Reference: publication PMC6979384, “Characterization of the plant homeodomain (PHD) reader family for their histone tail interactions” (Epigenetics & Chromatin, 2020)
Values belong to the substance of their own block, whether it stands above or below them.

Assays:
Assay in all cases: Histone peptide microarray
Assay type in all cases: binding, human
Conditions in all cases: arrays performed twice, n of 4
[1] = system: ING2
Procedure, shortened: (§1)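 Binding read as mean relative signal from 4 replicates; microarray held 293 synthetic histone peptides with single or combinatorial PTMs. Each GST-tagged PHD reader was applied at 0.5 μM using the optimized Petell protocol.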

[2] = system: RAG2
Procedure, shortened: as §1

[3] = system: AIRE (PP)
Procedure, shortened: as §1

[4] = system: CHD4 (PPCC)
Procedure, shortened: as §1

[5] = system: PHF23
Procedure, shortened: as §1

[6] = system: KDM5B (3)
Procedure, shortened: as §1

[7] = system: ING5
Procedure, shortened: as §1

[8] = system: ING4
Procedure, shortened: as §1

[9] = system: ING3
Procedure, shortened: as §1

[10] = system: PHRF1 (RP)
Procedure, shortened: as §1

[11] = system: MORC3 (CW)
Procedure, shortened: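 GST-tagged PHD readers, 0.5 μM, probed on a microarray of 293 synthetic histone peptides carrying single or combinatorial PTMs (optimized Petell protocol). Signals are averaged over 4 replicates and expressed as relative binding.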

[12] = system: PHF2
Procedure, shortened: as §1

[13] = system: KDM5A (1)
Procedure, shortened: as §1

[14] = system: CHD5 (PCC)
Procedure, shortened: as §1

[15] = system: DIDO1
Procedure, shortened: as §1

[16] = system: CHD5 (PPCC)
Procedure, shortened: as §1

[17] = system: SP140L
Procedure, shortened: as §1

[18] = system: DPF2 (PPC2W2)
Procedure, shortened: as §1

[19] = system: TRIM66 (PB)
Procedure, shortened: as §1

[20] = system: KDM7A
Procedure, shortened: as §1

[21] = system: PHF8
Procedure, shortened: as §1

[22] = system: MLL5
Procedure, shortened: as §1

[23] = system: ING1
Procedure, shortened: as §1

[24] = system: KDM5B (1)
Procedure, shortened: as §1

[25] = system: BAZ2B
Procedure, shortened: as §1

[26] = system: KDM5A (3)
Procedure, shortened: as §1

[27] = system: BPTF (PB)
Procedure, shortened: as §1

[28] = system: PHF21A
Procedure, shortened: as §1

[29] = system: KDM4C (TTP)
Procedure, shortened: as §1

[30] = system: PHF13
Procedure, shortened: as §1

[31] = system: TAF3
Procedure, shortened: as §1

Array Heatmap value (peptide array binding signal) ([1]; ING2, GST-tagged): 0.5908 | Array Heatmap value (peptide array binding signal) ([2]; RAG2, GST-tagged): 0.2498 | Array Heatmap value (peptide array binding signal) ([3]; AIRE (PP), GST-tagged): 0.5505 | Array Heatmap value (peptide array binding signal) ([4]; CHD4 (PPCC), GST-tagged): 0.6135 | Array Heatmap value (peptide array binding signal) ([5]; PHF23, GST-tagged): 0.5334 | Array Heatmap value (peptide array binding signal) ([6]; KDM5B (3), GST-tagged): 0.5497 | Array Heatmap value (peptide array binding signal) ([7]; ING5, GST-tagged): 0.3842 | Array Heatmap value (peptide array binding signal) ([8]; ING4, GST-tagged): 0.4824 | Array Heatmap value (peptide array binding signal) ([9]; ING3, GST-tagged): 0.496 | Array Heatmap value (peptide array binding signal) ([10]; PHRF1 (RP), GST-tagged): 0.4 | Array Heatmap value (peptide array binding signal) ([11]; MORC3 (CW), GST-tagged): 0.3391 | Array Heatmap value (peptide array binding signal) ([12]; PHF2, GST-tagged): 0.4316 | Array Heatmap value (peptide array binding signal) ([13]; KDM5A (1), GST-tagged): 0.5024 | Array Heatmap value (peptide array binding signal) ([14]; CHD5 (PCC), GST-tagged): 0.8332 | Array Heatmap value (peptide array binding signal) ([15]; DIDO1, GST-tagged): 0.604 | Array Heatmap value (peptide array binding signal) ([16]; CHD5 (PPCC), GST-tagged): 0.5873 | Array Heatmap value (peptide array binding signal) ([17]; SP140L, GST-tagged): 0.3715 | Array Heatmap value (peptide array binding signal) ([18]; DPF2 (PPC2W2), GST-tagged): 0.6377 | Array Heatmap value (peptide array binding signal) ([19]; TRIM66 (PB), GST-tagged): 0.5961 | Array Heatmap value (peptide array binding signal) ([20]; KDM7A, GST-tagged): 0.4248 | Array Heatmap value (peptide array binding signal) ([21]; PHF8, GST-tagged): 0.3219 | Array Heatmap value (peptide array binding signal) ([22]; MLL5, GST-tagged): 0.5351 | Array Heatmap value (peptide array binding signal) ([23]; ING1, GST-tagged): 0.4954 | Array Heatmap value (peptide array binding signal) ([24]; KDM5B (1), GST-tagged): 0.6403 | Array Heatmap value (peptide array binding signal) ([25]; BAZ2B, GST-tagged): 0.5161 | Array Heatmap value (peptide array binding signal) ([26]; KDM5A (3), GST-tagged): 0.3797 | Array Heatmap value (peptide array binding signal) ([27]; BPTF (PB), GST-tagged): 0.3685 | Array Heatmap value (peptide array binding signal) ([28]; PHF21A, GST-tagged): 0.5207 | Array Heatmap value (peptide array binding signal) ([29]; KDM4C (TTP), GST-tagged): 0.5414 | Array Heatmap value (peptide array binding signal) ([30]; PHF13, GST-tagged): 0.6532 | Array Heatmap value (peptide array binding signal) ([31]; TAF3, GST-tagged): 0.2733
Substance: H4K12ac + K20ac: H4 1-23

Substance: H3Cit2 + K4ac + K9ac + K14ac + K18ac: H3 1-20
Array Heatmap signal, ING2 ([1]; GST-tagged ING2, histone peptide array): 0.5962 | Array Heatmap signal, RAG2 ([2]; GST-tagged RAG2, histone peptide array): 0.246 | Array Heatmap signal, AIRE (PP) ([3]; GST-tagged AIRE (PP), histone peptide array): 0.5046 | Array Heatmap signal, CHD4 (PPCC) ([4]; GST-tagged CHD4 (PPCC = Dual PHD + Dual Chromodomain), histone peptide array): 0.5849 | Array Heatmap signal, PHF23 ([5]; GST-tagged PHF23, histone peptide array): 0.5298 | Array Heatmap signal, KDM5B (3) ([6]; GST-tagged KDM5B (3), histone peptide array): 0.5221 | Array Heatmap signal, ING5 ([7]; GST-tagged ING5, histone peptide array): 0.342 | Array Heatmap signal, ING4 ([8]; GST-tagged ING4, histone peptide array): 0.466 | Array Heatmap signal, ING3 ([9]; GST-tagged ING3, histone peptide array): 0.4982 | Array Heatmap signal, PHRF1 (RP) ([10]; GST-tagged PHRF1 (RP), histone peptide array): 0.4027 | Array Heatmap signal, MORC3 (CW) ([11]; GST-tagged MORC3 (CW = CW-type Zn-finger), histone peptide array): 0.3458 | Array Heatmap signal, PHF2 ([12]; GST-tagged PHF2, histone peptide array): 0.465 | Array Heatmap signal, KDM5A (1) ([13]; GST-tagged KDM5A (1), histone peptide array): 0.4761 | Array Heatmap signal, CHD5 (PCC) ([14]; GST-tagged CHD5 (PCC = PHD + Dual Chromodomain), histone peptide array): 0.8259 | Array Heatmap signal, DIDO1 ([15]; GST-tagged DIDO1, histone peptide array): 0.6333 | Array Heatmap signal, CHD5 (PPCC) ([16]; GST-tagged CHD5 (PPCC = Dual PHD + Dual Chromodomain), histone peptide array): 0.5544 | Array Heatmap signal, SP140L ([17]; GST-tagged SP140L, histone peptide array): 0.3325 | Array Heatmap signal, DPF2 (PPC2W2) ([18]; GST-tagged DPF2 (PPC2W2 = Dual PHD + C2W2-type Zn-finger), histone peptide array): 0.6168 | Array Heatmap signal, TRIM66 (PB) ([19]; GST-tagged TRIM66 (PB = PHD + Bromodomain), histone peptide array): 0.5899 | Array Heatmap signal, KDM7A ([20]; GST-tagged KDM7A, histone peptide array): 0.3757 | Array Heatmap signal, PHF8 ([21]; GST-tagged PHF8, histone peptide array): 0.3508 | Array Heatmap signal, MLL5 ([22]; GST-tagged MLL5, histone peptide array): 0.5262 | Array Heatmap signal, ING1 ([23]; GST-tagged ING1, histone peptide array): 0.5011 | Array Heatmap signal, KDM5B (1) ([24]; GST-tagged KDM5B (1), histone peptide array): 0.646 | Array Heatmap signal, BAZ2B ([25]; GST-tagged BAZ2B, histone peptide array): 0.5241 | Array Heatmap signal, KDM5A (3) ([26]; GST-tagged KDM5A (3), histone peptide array): 0.3736 | Array Heatmap signal, BPTF (PB) ([27]; GST-tagged BPTF (PB = PHD + Bromodomain), histone peptide array): 0.3441 | Array Heatmap signal, PHF21A ([28]; GST-tagged PHF21A, histone peptide array): 0.4553 | Array Heatmap signal, KDM4C (TTP) ([29]; GST-tagged KDM4C (TTP = Tandem Tudor domain + PHD), histone peptide array): 0.4985 | Array Heatmap signal, PHF13 ([30]; GST-tagged PHF13, histone peptide array): 0.6115 | Array Heatmap signal, TAF3 ([31]; GST-tagged TAF3, histone peptide array): 0.2461
